What all share (assay type): in vivo
Series [1] concerns Papaver rhoeas (herbicide-resistant poppy). As to the kind of experiment: Greenhouse postemergence herbicidal effect on PAPRH-RES. The settings on record: Compound A 0, Oxyfluorfen 560 g/ha. From the text:
(§1) Greenhouse Trial Methodology—Evaluation of Postemergence Herbicidal Effect
(§2) Seeds of the desired test plant species were planted in a 90:10% v/v (volume/volume) mixture of PRO-MIX® BX (Premier Tech Horticulture, Quakertown, Pa., USA) and PROFILE® GREENS GRADE™ (Profile Products LLC, Buffalo Grove, Ill., USA) planting mixture, which typically has a pH of 5.2 to 6.2 and an organic matter content of at least 50 percent, in plastic pots with a surface area of 103.2 square centimeters (cm^2). In some aspects or embodiments, to help ensure good germination and healthy plants, a fungicide treatment and/or other chemical or physical treatment was applied. The plants were grown for 7-36 days (d) in a greenhouse with an approximate 14-hour (h) photoperiod which was maintained at about 23° C. during the day and 22° C. during the night. Nutrients and water were added on a regular basis and supplemental lighting was provided with overhead metal halide 1000-Watt lamps as necessary. The plants were employed for testing when they reached the second or third true leaf stage.
(§3) Emulsifiable concentrates of each of each pyridine carboxylate herbicide (Compound A or Compound B) were prepared at 100 grams acid equivalent per liter (g ae/L). The emulsifiable concentrates also included a safener, cloquintocet mexyl, at 120 grams active ingredient per liter (g ai/L). An aliquot of each emulsifiable concentrate was placed in a 25 mL glass vial and diluted with an aqueous mixture of 1.25% (v/v) ACTIROB® B esterified rapeseed oil (Bayer Crop Science, Research Triangle Park, N.C., USA) or MSO® Concentrate with LECI-TECH® methylated soybean oil (Loveland Products, Loveland, Colo., USA) to obtain concentrated stock solutions at the highest application rate for each herbicide, based upon a 12 milliliter (mL) application volume at a rate of 187 liters per hectare (L/ha). The concentrated stock solutions were further diluted with an aqueous mixture of 1.25% v/v ACTIROB® B or MSO® Concentrate with LECI-TECH® to obtain stock solutions at reduced application rates for each herbicide. Spray solutions of the herbicide combinations (Compound A or Compound B plus PROTOX inhibitor herbicide) were prepared by adding weighed amounts or aliquots of the PROTOX inhibitor herbicides to the stock solutions of Compound A or Compound B to form 12-mL spray solutions in two-way combinations. […]
(§4) The treated plants and control plants were placed in a greenhouse as described above and watered by sub-irrigation to prevent wash-off of the test compounds. After 20-22 d, the condition of the test plants as compared with that of the control plants was determined visually and scored on a scale of 0 to 100 percent where 0 corresponds to no injury and 100 corresponds to complete kill.

Series [2] has as its system Veronica persica (Persian speedwell). The experiment in a line: Greenhouse postemergence herbicidal effect on VERPE. The settings on record: Compound A 0, Oxyfluorfen 560 g/ha.
Text: as §1, §2, §3, §4

For series [3], the system named is Cyanus segetum (cornflower). As to the kind of experiment: Greenhouse postemergence herbicidal effect on CENCY. Conditions: Compound A 0, Oxyfluorfen 560 g/ha.
Text: as §1, §2, §3, §4

The subject of series [4] is Cirsium arvense (Canadian thistle). The experiment in a line: Greenhouse postemergence herbicidal effect on CIRAR.
Text: as §1, §2
(§5) Emulsifiable concentrates of each of each pyridine carboxylate herbicide (Compound A or Compound B) were prepared at 100 grams acid equivalent per liter (g ae/L). The emulsifiable concentrates also included a safener, cloquintocet mexyl, at 120 grams active ingredient per liter (g ai/L). An aliquot of each emulsifiable concentrate was placed in a 25 mL glass vial and diluted with an aqueous mixture of 1.25% (v/v) ACTIROB® B esterified rapeseed oil (Bayer Crop Science, Research Triangle Park, N.C., USA) or MSO® Concentrate with LECI-TECH® methylated soybean oil (Loveland Products, Loveland, Colo., USA) to obtain concentrated stock solutions at the highest application rate for each herbicide, based upon a 12 milliliter (mL) application volume at a rate of 187 liters per hectare (L/ha). The concentrated stock solutions were further diluted with an aqueous mixture of 1.25% v/v ACTIROB® B or MSO® Concentrate with LECI-TECH® to obtain stock solutions at reduced application rates for each herbicide. Spray solutions of the herbicide combinations (Compound A or Compound B plus PROTOX inhibitor herbicide) were prepared by adding weighed amounts or aliquots of the PROTOX inhibitor herbicides to the stock solutions of Compound A or Compound B to form 12-mL spray solutions in two-way combinations.
(§6) The spray solutions were applied to the plant material with an overhead Mandel track sprayer equipped with 8002E nozzles calibrated to deliver 187 L/ha over an application area of 0.503 square meters (m^2) at a spray height of 18 inches (43 centimeters (cm)) above the average plant canopy. Control plants were sprayed in the same manner with the solvent blank. All pyridine carboxylate herbicide (component a) application rates are given as “g ae/ha” and all PROTOX inhibitor herbicide (component b) application rates are given as “g ai/ha.”
as §4

Series [5] concerns Brassica napus (winter rape). As to the kind of experiment: Greenhouse postemergence herbicidal effect on BRSNW. The settings on record: Compound A 0, Oxyfluorfen 560 g/ha.
Text: as §1, §2, §5, §6, §4

Series [6] concerns Matricaria inodora (scentless chamomile). The experiment in a line: Greenhouse postemergence herbicidal effect on MATIN. Conditions: Compound A 0, Oxyfluorfen 560 g/ha.
Text: as §1, §2, §3, §4

The test system of series [7] is Kochia scoparia (kochia). The experiment in a line: Greenhouse postemergence herbicidal effect on KCHSC.
Text: as §1, §2, §5, §6, §4

The subject of series [8] is Stellaria media (chickweed). As to the kind of experiment: Greenhouse postemergence herbicidal effect on STEME. Conditions: Compound A 0, Oxyfluorfen 560 g/ha.
Text: as §1, §2, §3, §4

Series [9] relates to Sinapis arvensis (wild mustard). As to the kind of experiment: Greenhouse postemergence herbicidal effect on SINAR. Conditions: Compound A 0, Oxyfluorfen 560 g/ha.
Text: as §1, §2, §5, §6, §4

Series [10] has as its system Hordeum vulgare (spring barley). The experiment in a line: Greenhouse postemergence phytotoxicity on crop HORVS.
Text: as §1, §2, §5, §6, §4

Series [11] concerns Salsola kali (Russian thistle). The experiment in a line: Greenhouse postemergence herbicidal effect on SASKR.
Text: as §1, §2, §5, §6, §4

Series [12] relates to Lamium purpureum (purple deadnettle). The experiment in a line: Greenhouse postemergence herbicidal effect on LAMPU. The settings on record: Compound A 0, Oxyfluorfen 560 g/ha.
Text: as §1, §2, §3, §4

Series [13] concerns Triticum aestivum (spring wheat). The experiment in a line: Greenhouse postemergence phytotoxicity on crop TRZAS.
Text: as §1, §2, §5, §6, §4

The subject of series [14] is Anthemis arvensis (corn chamomile). The experiment in a line: Greenhouse postemergence herbicidal effect on ANTAR. The settings on record: Compound A 0, Oxyfluorfen 560 g/ha.
Text: as §1, §2, §3, §4

The test system of series [15] is Hordeum vulgare (winter barley). The experiment in a line: Greenhouse postemergence phytotoxicity on crop HORVW. The settings on record: Compound A 0, Oxyfluorfen 560 g/ha.
Text: as §1, §2, §3, §4

Series [16] deals with Matricaria discoidea (pineapple weed). The experiment in a line: Greenhouse postemergence herbicidal effect on MATMT. The settings on record: Compound A 0, Oxyfluorfen 560 g/ha.
Text: as §1, §2, §3, §4

Series [17] concerns Capsella bursa-pastoris (shepherd's purse). As to the kind of experiment: Greenhouse postemergence herbicidal effect on CAPBP. The settings on record: Compound A 0, Oxyfluorfen 560 g/ha.
Text: as §1, §2, §3, §4

The subject of series [18] is Viola tricolor (wild pansy). As to the kind of experiment: Greenhouse postemergence herbicidal effect on VIOTR.
Text: as §1, §2, §5, §6, §4

Series [19] deals with Polygonum convolvulus (wild buckwheat). As to the kind of experiment: Greenhouse postemergence herbicidal effect on POLCO.
Text: as §1, §2, §5, §6, §4

The test system of series [20] is Veronica hederifolia (ivy-leaved speedwell). The experiment in a line: Greenhouse postemergence herbicidal effect on VERHE. Conditions: Compound A 0, Oxyfluorfen 560 g/ha.
Text: as §1, §2, §3, §4

Series [21] has as its system Papaver rhoeas (common poppy). As to the kind of experiment: Greenhouse postemergence herbicidal effect on PAPRH. The settings on record: Compound A 0, Oxyfluorfen 560 g/ha.
Text: as §1, §2, §3, §4

Series [22] relates to Viola arvensis (field violet). The experiment in a line: Greenhouse postemergence herbicidal effect on VIOAR. The settings on record: Compound A 0, Oxyfluorfen 560 g/ha.
Text: as §1, §2, §3, §4

Series [23] deals with Triticum aestivum (winter wheat). The experiment in a line: Greenhouse postemergence phytotoxicity on crop TRZAW. Conditions: Compound A 0, Oxyfluorfen 560 g/ha.
Text: as §1, §2, §3, §4

In series [24] the test system is Matricaria chamomilla (wild chamomile). As to the kind of experiment: Greenhouse postemergence herbicidal effect on MATCH. Conditions: Compound A 0, Oxyfluorfen 560 g/ha.
Text: as §1, §2, §5, §6, §4

Series [25] has as its system Setaria faberi (giant foxtail). As to the kind of experiment: Greenhouse postemergence herbicidal effect on SETFA.
Text: as §1, §2, §5, §6, §4

Series [26] concerns Digitaria sanguinalis (large crabgrass). As to the kind of experiment: Greenhouse postemergence herbicidal effect on DIGSA. Conditions: Compound A 0, Bifenox 90 g/ha.
Text: as §1, §2
(§7) Emulsifiable concentrates of each of each pyridine carboxylate herbicide (Compound A or Compound B) were prepared at 100 grams acid equivalent per liter (g ae/L). The emulsifiable concentrates also included a safener, cloquintocet mexyl, at 120 grams active ingredient per liter (g ai/L). […]
as §4

Series [27] relates to Rumex obtusifolius (broad-leaf dock). As to the kind of experiment: Greenhouse postemergence herbicidal effect on RUMOB. The settings on record: Compound A 0, Bifenox 90 g/ha.
Text: as §1, §2, §5, §6, §4

In series [28] the test system is Echinochloa crus-galli (barnyard grass). As to the kind of experiment: Greenhouse postemergence herbicidal effect on ECHCG. The settings on record: Compound A 0, Bifenox 90 g/ha.
Text: as §1, §2, §7, §4

Series [29] has as its system Brassica napus (spring rape). The experiment in a line: Greenhouse postemergence herbicidal effect on BRSNN. Conditions: Compound A 0, Bifenox 90 g/ha.
Text: as §1, §2, §5, §6, §4

Series [30] relates to Avena fatua (wild oat). As to the kind of experiment: Greenhouse postemergence herbicidal effect on AVEFA. The settings on record: Compound A 0, Bifenox 90 g/ha.
Text: as §1, §2, §7, §4

Where [31] appears, read: Compound A 0, Oxyfluorfen 560 g/ha.
[32] abbreviates: Compound A 0, Carfentrazone-ethyl 5 g/ha.
Setting [33] is: Compound B 7.5, Saflufenacil 0 g/ha.
The mark [34] stands for this setting: Compound B 10, Saflufenacil 0 g/ha.

On to `CCOc1cc(Oc2ccc(C(F)(F)F)cc2Cl)ccc1[N+](=O)[O-]` [Oxyfluorfen, 2-chloro-1-(3-ethoxy-4-nitrophenoxy)-4-(trifluoromethyl)benzene, reference compound], for which the “% visual injury, Obs” value in [1] stood at 45%; in series [2], 20%; in [3], 15%; in series [4] (setting [31]), 35%; in series [5], 20%; in series [6] it was 0%. The “% visual injury, Obs” value is 55% in series [7] (setting [31]); 0% in series [8]; 20% in series [9]; 70% in series [10] (setting [31]); 60% in [11] (setting [31]); 10% in series [12]. In addition, the “% visual injury, Obs” value came out at 23% in series [13] (setting [31]); 5% in series [14]; 50% in [15]; 5% in series [16]; 0% in series [17]; 60% in [18] (setting [31]). Further, the “% visual injury, Obs” value in series [19] (setting [31]) was found to be 80%; in [20], 5%; in [21] it was 70%; in series [22], 40%; in series [23], 20%; in [24] it was 25%.

In the case of `CCOC(=O)C(Cl)Cc1cc(-n2nc(C)n(C(F)F)c2=O)c(F)cc1Cl` (stereo not drawn) [Carfentrazone-ethyl, ethyl α,2-dichloro-5-[4-(difluoromethyl)-4,5-dihydro-3-methyl-5-oxo-1H-1,2,4-triazol-1-yl]-4-fluorobenzenepropanoate, reference compound], the “% visual injury, Obs” value in [7] (setting [32]) was 20%; in [10] (setting [32]), 8%; in series [11] (setting [32]), 68%; in [13] (setting [32]), 0%; in series [19] (setting [32]), 5%.

Take `C#CCOC(=O)c1nc(-c2ccc3cc[nH]c3c2F)c(F)c(N)c1Cl` [Compound B, propargyl 4-amino-3-chloro-5-fluoro-6-(7-fluoro-1H-indol-6-yl)pyridine-2-carboxylate]: the “% visual injury, Obs” value in series [25] (setting [33]) was 70%; in series [25] (setting [34]) it was 55%; in series [4] (setting [33]) it was 45%; in series [4] (setting [34]), 45%; in [18] (setting [33]) it was 10%; in series [18] (setting [34]), 40%.

Regarding `COC(=O)c1cc(Oc2ccc(Cl)cc2Cl)ccc1[N+](=O)[O-]` [Bifenox, methyl 5-(2,4-dichlorophenoxy)-2-nitrobenzoate, reference compound], the “% visual injury, Obs” value was determined as 18% in series [25] (Compound A 0, Bifenox 90 g/ha); 18% in series [4] (Compound A 0, Bifenox 90 g/ha); 25% in series [26]; 73% in series [7] (Compound A 0, Bifenox 90 g/ha); 0% in series [27]; 15% in series [28]. The “% visual injury, Obs” value in series [29] is reported as 23%; in [18] (Compound A 0, Bifenox 90 g/ha) it was 0%; in [30], 5%.
